BindingDB's records for doi:10.7270/Q2TX3CSC (Vanderbilt Screening Center for GPCRs, Ion Channels and …, 2009)

Target: T1, Solute carrier family 12 member 5 (Homo sapiens, UniProt Q9H2X9)
T1 sequence (Q9H2X9 whole entry): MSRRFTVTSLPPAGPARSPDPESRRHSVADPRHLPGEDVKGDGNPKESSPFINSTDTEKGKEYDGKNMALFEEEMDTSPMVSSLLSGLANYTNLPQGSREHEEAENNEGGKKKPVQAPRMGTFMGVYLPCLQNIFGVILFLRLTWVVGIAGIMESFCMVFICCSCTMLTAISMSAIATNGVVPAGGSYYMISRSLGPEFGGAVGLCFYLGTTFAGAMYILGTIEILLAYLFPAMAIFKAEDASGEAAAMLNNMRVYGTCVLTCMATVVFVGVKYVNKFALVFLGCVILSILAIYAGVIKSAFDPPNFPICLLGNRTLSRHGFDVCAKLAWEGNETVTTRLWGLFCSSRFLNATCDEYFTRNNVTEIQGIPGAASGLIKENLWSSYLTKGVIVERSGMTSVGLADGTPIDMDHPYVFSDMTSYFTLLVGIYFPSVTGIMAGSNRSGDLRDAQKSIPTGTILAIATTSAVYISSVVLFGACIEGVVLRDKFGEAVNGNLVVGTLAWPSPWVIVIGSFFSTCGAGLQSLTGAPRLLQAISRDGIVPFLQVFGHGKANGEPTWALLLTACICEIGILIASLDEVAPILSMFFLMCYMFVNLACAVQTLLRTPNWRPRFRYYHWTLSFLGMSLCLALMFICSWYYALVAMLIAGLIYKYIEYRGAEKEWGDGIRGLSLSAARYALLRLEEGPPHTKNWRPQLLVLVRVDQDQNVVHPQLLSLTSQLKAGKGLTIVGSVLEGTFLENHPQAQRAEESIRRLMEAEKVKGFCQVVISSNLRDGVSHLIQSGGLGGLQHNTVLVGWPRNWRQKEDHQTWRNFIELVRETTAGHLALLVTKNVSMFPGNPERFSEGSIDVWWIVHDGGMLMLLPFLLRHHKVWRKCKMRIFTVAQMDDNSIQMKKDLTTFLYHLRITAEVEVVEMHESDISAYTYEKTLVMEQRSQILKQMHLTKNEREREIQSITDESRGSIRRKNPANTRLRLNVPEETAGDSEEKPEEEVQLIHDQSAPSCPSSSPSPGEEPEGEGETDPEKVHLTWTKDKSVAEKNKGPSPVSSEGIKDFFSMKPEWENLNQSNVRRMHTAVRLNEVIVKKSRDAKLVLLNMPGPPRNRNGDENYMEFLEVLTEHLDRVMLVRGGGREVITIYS
Assay: KCC2 modulator potency by thallium flux, dose response, cell-based, HEK293 KCC2, FluoZin-2 fluorescence (AID 1736)

[1] = inactive by the depositor's call

Row | Compound | EC50 [µM] | EC50 [1] [µM]
1 | Cc1ccc(-c2n[nH]c(=S)n2NC=CCc2ccccc2[N+](=O)[O-])cc1 | 1.62 | –
2 | Cc1[nH]c2ccccc2c1Cc1n[nH]c(=S)n1C | 6.59 | –
3 | COc1cc(C=NN(C)c2ccccc2)ccc1O | 23.8 | –
4 | Cc1[nH]c2ccccc2c1Cc1nnc(S)o1 | 3.21 | –
5 | O=c1[nH]c2c(s1)C(c1ccccc1)c1c(c(O)n(-c3ccccc3)c1O)S2 (configuration not stated) | 0.0665 | –
6 | O=C(CSc1ccccc1C(=O)NCc1ccccc1)NC12CC3CC(CC(C3)C1)C2 | 9.17 | –
7 | CN(c1ccccc1)c1ccc(/C=C(\CCC(=O)O)c2nc3ccccc3s2)cc1[N+](=O)[O-] | – | 8.17
8 | CC(C)N1C(=O)S/C(=C/c2ccccc2OCc2ccc(C(=O)O)cc2)C1=O | 1.48 | –
9 | Cc1cccc(NC2=NN=C(c3ccccc3F)CS2)c1C | 27.9 | –
10 | O=C1OC(c2ccc(O)cc2)(c2ccc(O)cc2)c2ccccc21 | 2.31 | –
11 | O=C(O)c1cc(-c2ccc(F)cc2F)ccc1O | 25.7 | –
12 | CCn1c(=O)n(CC)c2cc(S(=O)(=O)N3CCC(c4ccccc4)CC3)ccc21 [1,3-diethyl-5-(4-phenylpiperidin-1-yl)sulfonyl-benzimidazol-2-one] | 10.8 | –
13 | O=C(c1cc2c(s1)-c1ccccc1OC2)N1CCC2(CC1)OCCO2 [1,4-dioxa-8-azaspiro[4.5]decan-8-yl(4H-thieno[3,2-c][1]benzopyran-2-yl)methanone] | 24.9 | –
14 | CCOc1ccccc1CNC(=O)C1CCN(c2nc3ccccc3o2)CC1 [1-(1,3-benzoxazol-2-yl)-N-(2-ethoxybenzyl)isonipecotamide] | – | 95.9
15 | O=C(CSc1nnc(C2CC2)n1Cc1ccccc1)c1cc2ccccc2o1 [1-(1-benzofuran-2-yl)-2-[(4-benzyl-5-cyclopropyl-1,2,4-triazol-3-yl)sulfanyl]ethanone] | 21.2 | –
16 | Cc1ccc(Nc2nnc(SCC(=O)c3cc4ccccc4o3)s2)cc1C [1-(1-benzofuran-2-yl)-2-[[5-(3,4-dimethylanilino)-1,3,4-thiadiazol-2-yl]sulfanyl]ethanone] | – | 0.0853
17 | O=C(CC(C(=O)N1CCc2ccccc21)n1ccnc1)N1CCc2ccccc2C1 (configuration not stated) [1-(2,3-dihydroindol-1-yl)-4-(3,4-dihydro-1H-isoquinolin-2-yl)-2-(1-imidazolyl)butane-1,4-dione] | 1770 | –
18 | CC1Cc2ccccc2N1C(=O)CSc1nnc(CNc2ccccc2)o1 (configuration not stated) [1-(2-Methyl-2,3-dihydro-indol-1-yl)-2-(5-phenylaminomethyl-[1,3,4]oxadiazol-2-ylsulfanyl)-ethanone] | 0.941 | –
19 | S=C(NCc1ccccc1Cl)Nc1ccccc1Cl [1-(2-chlorobenzyl)-3-(2-chlorophenyl)thiourea] | 204 | –
20 | CC1Cc2ccccc2N1C(=O)CSc1nnnn1Cc1ccccc1 (configuration not stated) [1-(2-methyl-2,3-dihydroindol-1-yl)-2-[[1-(phenylmethyl)-1,2,3,4-tetrazol-5-yl]sulfanyl]ethanone] | 13.6 | –
21 | CSc1ccccc1N=C(S)Nc1ccc(S(N)(=O)=O)cc1 [1-(2-methylsulfanylphenyl)-3-(4-sulfamoylphenyl)thiourea] | 38.4 | –
22 | C=CCn1c(Cc2cccs2)nnc1SCC(=O)c1ccc2ccccc2c1 [1-(2-naphthalenyl)-2-[[4-prop-2-enyl-5-(thiophen-2-ylmethyl)-1,2,4-triazol-3-yl]thio]ethanone] | 4.42 | –
23 | Cc1oc(-c2ccccc2)nc1C[S+]([O-])CC(=O)N1CCc2ccccc2C1 (configuration not stated) [1-(3,4-dihydro-1H-isoquinolin-2-yl)-2-[(5-methyl-2-phenyl-1,3-oxazol-4-yl)methylsulfinyl]ethanone] | 7.74 | –
24 | COc1ccc(-c2nc(C[S+]([O-])CC(=O)N3CCc4ccccc4C3)c(C)o2)cc1 (configuration not stated) [1-(3,4-dihydro-1H-isoquinolin-2-yl)-2-[[2-(4-methoxyphenyl)-5-methyl-1,3-oxazol-4-yl]methylsulfinyl]ethanone] | – | 1410

Row | Compound | EC50 [µM] | EC50 [1] [µM]
25 | Cc1cccc(-c2nc(C[S+]([O-])CC(=O)N3CCc4ccccc4C3)c(C)o2)c1 (configuration not stated) [1-(3,4-dihydro-1H-isoquinolin-2-yl)-2-[[5-methyl-2-(3-methylphenyl)-1,3-oxazol-4-yl]methylsulfinyl]ethanone] | 7.28 | –
26 | S=C(NN=Cc1cccc2ccccc12)Nc1cccc(Cl)c1 [1-(3-chlorophenyl)-3-(1-naphthalenylmethylideneamino)thiourea] | 11 | –
27 | O=C(c1ccc(N2CCCCCC2)c([N+](=O)[O-])c1)N1CCc2ccccc21 [1-(4-azepan-1-yl-3-nitrobenzoyl)indoline] | 0.373 | –
28 | Cc1c(C(=O)NCCSCc2ccc(F)cc2)cnn1-c1ccc(Cl)cc1 [1-(4-chlorophenyl)-N-[2-[(4-fluorobenzyl)thio]ethyl]-5-methyl-pyrazole-4-carboxamide] | 6.18 | –
29 | O=C(CSc1nnc(Cc2ccccc2)o1)c1ccc(F)cc1 [1-(4-fluorophenyl)-2-[[5-(phenylmethyl)-1,3,4-oxadiazol-2-yl]sulfanyl]ethanone] | 2.39 | –
30 | COc1ccc(C(=O)CSc2nnnn2Cc2ccccc2)cc1 [1-(4-methoxyphenyl)-2-[[1-(phenylmethyl)-1,2,3,4-tetrazol-5-yl]sulfanyl]ethanone] | – | 1.68
31 | COc1ccc(N2C(=S)N=C(Nc3cccc(C)c3)C23CCCCC3)cc1 [1-(4-methoxyphenyl)-4-(3-methylanilino)-1,3-diazaspiro[4.5]dec-3-ene-2-thione] | 771 | –
32 | Cc1ccc(S(=O)(=O)N2CCC(=O)N(C(COCc3ccccc3)Cc3ccccc3)CC2)cc1 (configuration not stated) [1-(4-methylphenyl)sulfonyl-4-(1-phenyl-3-phenylmethoxy-propan-2-yl)-1,4-diazepan-5-one] | 1.69 | –
33 | S=C(NCc1cccnc1)Nc1ccc(Oc2ccccc2)cc1 [1-(4-phenoxyphenyl)-3-(3-pyridinylmethyl)thiourea] | 8.45 | –
34 | Cc1cccc(Nc2nnc(SCC(=O)c3ccc(Br)s3)s2)c1C [1-(5-bromanylthiophen-2-yl)-2-[[5-[(2,3-dimethylphenyl)amino]-1,3,4-thiadiazol-2-yl]sulfanyl]ethanone] | 1.41 | –
35 | Cc1ccc(Nc2nnc(SCC(=O)c3ccc(Br)s3)s2)c(C)c1 [1-(5-bromanylthiophen-2-yl)-2-[[5-[(2,4-dimethylphenyl)amino]-1,3,4-thiadiazol-2-yl]sulfanyl]ethanone] | 2.31 | –
36 | O=S(=O)(NCc1ccccc1)c1ccc(Cl)c(S(=O)(=O)NCc2ccccc2)c1 [1-N,3-N-dibenzyl-4-chlorobenzene-1,3-disulfonamide] | 2.34 | –
37 | CC(C)(CN=C(S)NCCc1ccccc1)CN=C(S)NCCc1ccccc1 [1-[2,2-dimethyl-3-(2-phenylethylcarbamothioylamino)propyl]-3-(2-phenylethyl)thiourea] | 165 | –
38 | Cc1ccc2oc(-c3ccc(C)c(NC(=S)NC(=O)c4cccs4)c3)nc2c1 [1-[2-Methyl-5-(5-methyl-benzooxazol-2-yl)-phenyl]-3-(thiophene-2-carbonyl)-thiourea] | 2.05 | –
39 | CCC(c1nnc(SCc2nc3ccccc3s2)n1Cc1ccccc1)N(C)C (configuration not stated) [1-[5-(1,3-benzothiazol-2-ylmethylsulfanyl)-4-(phenylmethyl)-1,2,4-triazol-3-yl]-N,N-dimethyl-propan-1-amine] | 14.7 | –
40 | CN(Cc1ccccc1)c1nc2nonc2nc1N1CCCC(CN2CCCC2=O)C1 (configuration not stated) [1-[(1-{6-[benzyl(methyl)amino][1,2,5]oxadiazolo[3,4-b]pyrazin-5-yl}piperidin-3-yl)methyl]pyrrolidin-2-one] | 2.43 | –
41 | S=C(NCCc1ccccc1)NN=Cc1cccc(Cl)c1Cl [1-[(2,3-dichlorobenzylidene)amino]-3-phenethyl-thiourea] | 47.6 | –
42 | Fc1cccc(F)c1C=NNC(=S)Nc1cccnc1 [1-[(2,6-difluorobenzylidene)amino]-3-(3-pyridyl)thiourea] | 6.93 | –
43 | NC(=S)NN=C1C(=O)N(Cc2ccc(F)cc2)c2ccccc21 [1-[(Z)-[1-[(4-fluorophenyl)methyl]-2-oxidanylidene-indol-3-ylidene]amino]thiourea] | 144 | –
44 | NC(=S)NN=C1C(=O)N(Cc2ccccc2)c2ccccc21 [1-[(Z)-[2-oxidanylidene-1-(phenylmethyl)indol-3-ylidene]amino]thiourea] | 0.295 | –
45 | O=C(C1CC1)N1CCc2cc(S(=O)(=O)NC3CCN(Cc4ccccc4)CC3)ccc21 [1-[cyclopropyl(oxo)methyl]-N-[1-(phenylmethyl)-4-piperidinyl]-2,3-dihydroindole-5-sulfonamide] | 6.33 | –
46 | Cc1ccc(-c2noc(CN3CCN(Cc4ccccc4)CC3)n2)cc1 [1-benzyl-4-{[3-(4-methylphenyl)-1,2,4-oxadiazol-5-yl]methyl}piperazine] | 6.64 | –
47 | CCCn1c(NC(=S)Nc2ccccc2)nc2ccccc21 [1-phenyl-3-(1-propyl-2-benzimidazolyl)thiourea] | – | 60400
